Results published in PubChem BioAssay AID1259407 (Chemical Carcinogenesis Research Information System (CCRIS), 2018).
Activity calls are given as the source filed them. No rule for the calls is given here.

Tested on: CCRIS mutagenicity, Ames/micronucleus/aberration tests
Assay: CCRIS mutagenicity studies

O=C(O)c1cc2ccccc2cc1O
mutagenic call (End Point: In vitro chromosomal aberrations, Test System: Chinese hamster lung (CHL/IU) cells, Metabolic Activation: Rat, Liver, S9, Phenobarbital and 5,6-benzoflavone): active; positive (structural changes and ploidy). precipitation of test chemical at 1.0
mutagenic call (Test System: AMES SALMONELLA TYPHIMURIUM, Strain/Indicator: TA98, Metabolic Activation: NONE, Method: PREINCUBATION): inactive; negative
mutagenic call (Test System: AMES SALMONELLA TYPHIMURIUM, Strain/Indicator: TA98, Metabolic Activation: RAT LIVER S-9, PHENOBARBITAL AND BETA-NAPHTHOFLAVONE, Method: PREINCUBATION): inactive; negative
mutagenic call (Test System: AMES SALMONELLA TYPHIMURIUM, Strain/Indicator: TA98, Metabolic Activation: RAT, LIVER, S-9, KC 500, Method: PREINCUBATION): inactive; negative
mutagenic call (Test System: AMES SALMONELLA TYPHIMURIUM, Strain/Indicator: TA100, Metabolic Activation: NONE, Method: PREINCUBATION): inactive; negative
mutagenic call (Test System: AMES SALMONELLA TYPHIMURIUM, Strain/Indicator: TA100, Metabolic Activation: RAT LIVER S-9, PHENOBARBITAL AND BETA-NAPHTHOFLAVONE, Method: PREINCUBATION): inactive; negative
mutagenic call (Test System: AMES SALMONELLA TYPHIMURIUM, Strain/Indicator: TA100, Metabolic Activation: RAT, LIVER, S-9, KC 500, Method: PREINCUBATION): inactive; negative
mutagenic call (Test System: AMES SALMONELLA TYPHIMURIUM, Strain/Indicator: TA1535, Metabolic Activation: NONE, Method: PREINCUBATION): inactive; negative
mutagenic call (Test System: AMES SALMONELLA TYPHIMURIUM, Strain/Indicator: TA1535, Metabolic Activation: RAT LIVER S-9, PHENOBARBITAL AND BETA-NAPHTHOFLAVONE, Method: PREINCUBATION): inactive; negative
mutagenic call (Test System: AMES SALMONELLA TYPHIMURIUM, Strain/Indicator: TA1535, Metabolic Activation: RAT, LIVER, S-9, KC 500, Method: PREINCUBATION): inactive; negative
mutagenic call (Test System: AMES SALMONELLA TYPHIMURIUM, Strain/Indicator: TA1537, Metabolic Activation: RAT LIVER S-9, PHENOBARBITAL AND BETA-NAPHTHOFLAVONE, Method: PREINCUBATION): inactive; negative
mutagenic call (Test System: AMES SALMONELLA TYPHIMURIUM, Strain/Indicator: TA1537, Metabolic Activation: RAT, LIVER, S-9, KC 500, Method: PREINCUBATION): inactive; negative
mutagenic call (Test System: AMES SALMONELLA TYPHIMURIUM, Strain/Indicator: TA1538, Metabolic Activation: NONE, Method: PREINCUBATION): inactive; negative
mutagenic call (Test System: AMES SALMONELLA TYPHIMURIUM, Strain/Indicator: TA1538, Metabolic Activation: RAT LIVER S-9, PHENOBARBITAL AND BETA-NAPHTHOFLAVONE, Method: PREINCUBATION): inactive; negative
mutagenic call (Test System: AMES SALMONELLA TYPHIMURIUM, Strain/Indicator: TA1538, Metabolic Activation: RAT, LIVER, S-9, KC 500, Method: PREINCUBATION): inactive; negative
mutagenic call (Test System: E. COLI, Strain/Indicator: WP2UVRA/PKM101, Metabolic Activation: NONE, Method: PREINCUBATION): inactive; negative
mutagenic call (Test System: E. COLI, Strain/Indicator: WP2UVRA/PKM101, Metabolic Activation: RAT LIVER S-9, PHENOBARBITAL AND BETA-NAPHTHOFLAVONE, Method: PREINCUBATION): inactive; negative
mutagenic call (Test System: E. COLI, Strain/Indicator: WP2 UVRA, Metabolic Activation: NONE, Method: PREINCUBATION): inactive; negative
mutagenic call (Test System: E. COLI, Strain/Indicator: WP2UVRA, Metabolic Activation: NONE, Method: PREINCUBATION): inactive; negative
mutagenic call (Test System: E. COLI, Strain/Indicator: WP2UVRA, Metabolic Activation: RAT LIVER S-9, PHENOBARBITAL AND BETA-NAPHTHOFLAVONE, Method: PREINCUBATION): inactive; negative
mutagenic call (Test System: E. COLI, Strain/Indicator: WP2 UVRA, Metabolic Activation: RAT, LIVER, S-9, KC 500, Method: PREINCUBATION): inactive; negative
